Reference: patent publication US20060069132A1, “Azolecarboxamide herbicides” (priority 2004, published 2006)

Key:
barnyardgrass [1] = test: Test B pre-/postemergence herbicide test; assay type: in vivo, Echinochloa crus-galli; details: for Barnyardgrass plant response rating: postemergence, scale 0 (no effect) to 100 (complete control)
Outline: (§1)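 Seeds were planted and treated preemergence with compounds formulated in a non-phytotoxic solvent mixture containing surfactant, while plants at the 1- to 4-leaf stage (2 to 18 cm) received postemergence sprays. Flooded paddy plants were grown to the 2-leaf stage. After 13 to 15 days in a greenhouse, injury was visually rated 0–100 against untreated controls.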

Surinam grass = test: Test B pre-/postemergence herbicide test; assay type: in vivo, Urochloa decumbens; details: for Surinam Grass plant response rating: postemergence, scale 0 (no effect) to 100 (complete control)
Outline: (§2)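 Plants compared with untreated controls 13–15 days post-treatment and given a visual 0–100 injury score. Applications: preemergence to seeds; postemergence at 1- to 4-leaf (2–18 cm); paddy species flooded, 2-leaf stage. Vehicle non-phytotoxic, surfactant included.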

cocklebur = test: Test B pre-/postemergence herbicide test; assay type: in vivo, Xanthium strumarium; details: for Cocklebur plant response rating: postemergence, scale 0 (no effect) to 100 (complete control)
Outline: as §1

corn = test: Test B pre-/postemergence herbicide test; assay type: in vivo, Zea mays; details: for Corn plant response rating: postemergence, scale 0 (no effect) to 100 (complete control)
Outline: as §2

large crabgrass = test: Test B pre-/postemergence herbicide test; assay type: in vivo, Digitaria sanguinalis; details: for Crabgrass, Large plant response rating: postemergence, scale 0 (no effect) to 100 (complete control)
Outline: as §2

giant foxtail = test: Test B pre-/postemergence herbicide test; assay type: in vivo, Setaria faberi; details: for Foxtail, Giant plant response rating: postemergence, scale 0 (no effect) to 100 (complete control)
Outline: as §2

lambsquarters = test: Test B pre-/postemergence herbicide test; assay type: in vivo, Chenopodium album; details: for Lambsquarters plant response rating: postemergence, visual rating, scale 0 (no effect) to 100 (complete control)
Outline: as §2

morningglory = test: Test B pre-/postemergence herbicide test; assay type: in vivo, Ipomoea coccinea; details: for Morningglory plant response rating: postemergence, scale 0 (no effect) to 100 (complete control)
Outline: as §1

pigweed = test: Test B pre-/postemergence herbicide test; assay type: in vivo, Amaranthus retroflexus; details: for Pigweed plant response rating: postemergence, scale 0 (no effect) to 100 (complete control)
Outline: as §2

rice [2] = test: Test B pre-/postemergence herbicide test; assay type: in vivo, Oryza sativa; details: 0 = no effect, 100 = complete control, preemergence
Outline: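 Greenhouse pot assay with simultaneous preemergence (treated seed) and postemergence (2–18 cm seedlings) applications of surfactant-containing, non-phytotoxic solvent formulations. Response scored visually 13–15 days later on a 0–100 scale, 100 meaning complete control.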

velvetleaf = test: Test B pre-/postemergence herbicide test; assay type: in vivo, Abutilon theophrasti; details: for Velvetleaf plant response rating: postemergence, scale 0 (no effect) to 100 (complete control)
Outline: as §2

blackgrass = test: Test B postemergence herbicide test; assay type: in vivo, Alopecurus myosuroides; details: postemergence, visual rating, scale 0 (no effect) to 100 (complete control)
Outline: (§3)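 Postemergence plants were sprayed with formulated test chemicals at 2 to 18 cm height (1- to 4-leaf stage); paddy species were grown to the 2-leaf stage. After 13 to 15 days in a greenhouse, injury was rated visually against untreated controls on a 0–100 scale (0 = no effect, 100 = complete control).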

wheat = test: Test B postemergence herbicide test; assay type: in vivo, Triticum aestivum; set-up: key to Wheat plant response rating: 0 = no effect, 100 = complete control; details: postemergence, visual rating, scale 0 (no effect) to 100 (complete control)
Outline: (§4)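 Greenhouse test; postemergence application to plants at 1–4 leaves (2–18 cm); paddy species at 2 leaves; evaluated visually vs controls at 13–15 days; scale 0–100 (100 = complete control).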

wild oat = test: Test B postemergence herbicide test; assay type: in vivo, Avena fatua; details: postemergence, visual rating, scale 0 (no effect) to 100 (complete control)
Outline: as §4

rice [3] = test: Test B flooded paddy test; assay type: in vivo, Oryza sativa; details: 1000 g ai/ha, visual rating, scale 0 to 100 (0 no effect, 100 complete control), 13 to 15 days
Outline: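 Formulated test chemicals went onto postemergence plants measuring 2 to 18 cm, at one to four leaves. For the paddy assay, species had reached two leaves. Scoring took place 13–15 days later by eye, relative to untreated plants, using 0 for no effect up to 100 for full control.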

[4] = test system: small flower umbrella sedge; test: Test B flooded paddy test; assay type: in vivo, Cyperus difformis; details: 1000 g ai/ha, visual rating, scale 0 to 100 (0 no effect, 100 complete control), 13 to 15 days
Outline: as §3

ducksalad [5] = test: Test B flooded paddy test; assay type: in vivo, Heteranthera limosa; details: 1000 g ai/ha, visual rating, scale 0 to 100 (0 no effect, 100 complete control), 13 to 15 days
Outline: as §3

barnyardgrass [6] = test: Test B flooded paddy test; assay type: in vivo, Echinochloa crus-galli; details: 1000 g ai/ha, visual rating, scale 0 to 100 (0 no effect, 100 complete control), 13 to 15 days
Outline: as §3

rice [7] = test: Test C flooded paddy test; assay type: in vivo, Oryza sativa
Outline: (§5)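 Plants were grown to the 1- to 4-leaf stage (2–18 cm) and then treated postemergence, or grown to the 2-leaf stage for the flooded paddy test. They were held in a greenhouse for 12 to 14 days and then scored by eye against controls, where 0 is no effect and 100 is complete control.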

[8] = test system: smallflower umbrella sedge; test: Test C flooded paddy test; assay type: in vivo, Cyperus difformis
ducksalad [9] = test: Test C flooded paddy test; assay type: in vivo, Heteranthera limosa
barnyardgrass [10] = test: Test C flooded paddy test; assay type: in vivo, Echinochloa crus-galli
Outline: as §5

[11] = 125 g ai/ha, 0 = no effect, 100 = complete control, preemergence
[12] = 500 g ai/ha, visual rating, 0 = no effect, 100 = complete control, preemergence
[13] = 62 g ai/ha, scale 0 to 100 (0 no effect, 100 complete control)
[14] = 125 g ai/ha, scale 0 to 100 (0 no effect, 100 complete control)
[15] = 250 g ai/ha, scale of 0 to 100, 0 is no effect, 100 is complete control
[16] = 500 g ai/ha, visual rating after 12 to 14 days, scale 0 to 100 (0 no effect, 100 complete control)

CCc1nc(C(C)(C)C)sc1C(=O)Nc1cc(C(=O)N(C)C)ccc1F [Compound 225]
65: Sedge, Umbrella plant response rating [8, 13]
30: Barnyardgrass plant response rating (barnyardgrass [1]; 500 g ai/ha, visual rating) | Corn plant response rating (0 to 100 scale) (corn; [11]) | Velvetleaf plant response rating (0 to 100 scale) (velvetleaf; [11]) | Velvetleaf plant response rating (velvetleaf; 125 g ai/ha, visual rating) | Wheat plant response rating (wheat; 500 g ai/ha) | Oat, Wild plant response rating (wild oat; 500 g ai/ha)
90: Plant response rating, Barnyardgrass (barnyardgrass [1]; [12]) | Plant response rating, Surinam Grass (Surinam grass; [12]) | Plant response rating, Rice (rice [2]; 500 g ai/ha, visual rating) | Rice plant response rating (rice [3]) | Sedge, Umbrella plant response rating [4] | Ducksalad plant response rating (ducksalad [5]) | Barnyardgrass plant response rating (barnyardgrass [6]) | Plant response rating, Barnyardgrass (barnyardgrass [10]; [16])
50: Lambsquarters plant response rating (lambsquarters; 125 g ai/ha)
100: Plant response rating, Crabgrass, Large (large crabgrass; [12]) | Plant response rating, Foxtail, Giant (giant foxtail; [12]) | Plant response rating, Pigweed (pigweed; [12]) | Plant response rating, Velvetleaf (velvetleaf; [12])
75: Rice plant response rating (rice [7]; [15]) | Sedge, Umbrella plant response rating [8, 14] | Sedge, Umbrella plant response rating [8, 15] | Ducksalad plant response rating (ducksalad [9]; [14])
55: Rice plant response rating (rice [7]; [13])
0: Cocklebur plant response rating (0 to 100 scale) (cocklebur; [11]) | Morningglory plant response rating (0 to 100 scale) (morningglory; [11]) | Oat, Wild plant response rating (wild oat; 125 g ai/ha)
35: Barnyardgrass plant response rating (barnyardgrass [10]; [13])
70: Plant response rating, Corn (corn; [12]) | Lambsquarters plant response rating (lambsquarters; 500 g ai/ha) | Pigweed plant response rating (0 to 100 scale) (pigweed; [11]) | Pigweed plant response rating (pigweed; 500 g ai/ha, visual rating) | Rice plant response rating (rice [7]; [14])
40: Plant response rating, Cocklebur (cocklebur; [12]) | Morningglory plant response rating (morningglory; 500 g ai/ha, visual rating) | Pigweed plant response rating (pigweed; 125 g ai/ha, visual rating) | Velvetleaf plant response rating (velvetleaf; 500 g ai/ha, visual rating) | Blackgrass plant response rating (blackgrass; 500 g ai/ha)
80: Lambsquarters plant response rating (0 to 100 scale) (lambsquarters; [11]) | Plant response rating, Rice (rice [7]; [16]) | Plant response rating, Sedge, Umbrella [8, 16] | Barnyardgrass plant response rating (barnyardgrass [10]; [15])
10: Barnyardgrass plant response rating (barnyardgrass [1]; 125 g ai/ha, visual rating) | Surinam Grass plant response rating (Surinam grass; 125 g ai/ha, visual rating) | Corn plant response rating (corn; 125 g ai/ha, visual rating) | Crabgrass, Large plant response rating (0 to 100 scale) (large crabgrass; [11]) | Crabgrass, Large plant response rating (large crabgrass; 125 g ai/ha, visual rating) | Foxtail, Giant plant response rating (giant foxtail; 125 g ai/ha, visual rating) | Plant response rating, Morningglory (morningglory; [12]) | Morningglory plant response rating (morningglory; 125 g ai/ha, visual rating) | Wheat plant response rating (wheat; 125 g ai/ha) | Ducksalad plant response rating (ducksalad [9]; [13])
20: Surinam Grass plant response rating (0 to 100 scale) (Surinam grass; [11]) | Surinam Grass plant response rating (Surinam grass; 500 g ai/ha, visual rating) | Cocklebur plant response rating (cocklebur; 125 g ai/ha, visual rating) | Cocklebur plant response rating (cocklebur; 500 g ai/ha, visual rating) | Corn plant response rating (corn; 500 g ai/ha, visual rating) | Crabgrass, Large plant response rating (large crabgrass; 500 g ai/ha, visual rating) | Foxtail, Giant plant response rating (giant foxtail; 500 g ai/ha, visual rating) | Blackgrass plant response rating (blackgrass; 125 g ai/ha)
60: Barnyardgrass plant response rating (0 to 100 scale) (barnyardgrass [1]; [11]) | Foxtail, Giant plant response rating (0 to 100 scale) (giant foxtail; [11]) | Rice plant response rating (0 to 100 scale) (rice [2]; 125 g ai/ha) | Barnyardgrass plant response rating (barnyardgrass [10]; [14])
85: Ducksalad plant response rating (ducksalad [9]; [15]) | Plant response rating, Ducksalad (ducksalad [9]; [16])
